Values quoted from earlier work, collected in patent publication US11717481B2, “Reduction of flake-like aggregation in nanoparticulate active agent compositions” (Alkermes Pharma Ireland Limited, priority 2009, dated 2023).

solubility in water: Practically insoluble
Structure (SMILES): Cc1cnc(NC(=O)C2=C(O)c3ccccc3S(=O)(=O)N2C)s1 [Meloxicam, 4-hydroxy-2-methyl-N-(5-methyl-2-thiazolyl)-2H-1,2-benzothiazine-3-carboxamide-1,1-dioxide]
